Read-outs that look alike come from different tables or passages of the source.
Experiments:
UVR-induced hyperplasia [1] = test: 17AAG effect on UVR-induced hyperplasia / epidermal thickness; type: in vivo; conditions: SKH1 mice, 500 nmol topical after each UVR exposure, 24 hr and 48 hr after fourth UVR, p<0.01
Protocol: Groups of SKH1 mice were exposed to UVR (2 kJ/m2) three times (Monday, Wednesday, Friday, and Monday) weekly for 6 and 12 weeks. […] Mice were sacrificed at 24 hours after the last UVR treatment. […] For histochemistry, skin specimens were fixed in 10% neutral buffered formalin for 24 hours and embedded in paraffin.
In this experiment, groups of SKH1 hairless mice were exposed either four times to UVR (4 kJ/m^2, Monday, Wednesday, Friday, and Monday) or for 6 and 12 weeks (2 kJ/m^2, thrice weekly, Monday, Wednesday, Friday). […] The mice were sacrificed at 24 hr and 48 hr after the fourth UVR exposure. The, dorsal skin was removed and fixed in 10% formalin for the analyses of epidermal hyperplasia.

UVR-induced SCC [2] = test: UVR-induced development of SCC in SKH-1 hairless mice (tumor induction experiment); type: in vivo
Protocol: (§1) The SKH-1 hairless mice (6-7 week old) were exposed to UVR. The UVR source was Kodacel-filtered FS-40 sun lamps (approximately 60% UVB and 40% UVA). Mice were exposed to UVR (1.8 kJ/m2) three times weekly (Monday, Wednesday and Friday). The mice in the vehicle group (n=18) received topical treatment of 200 μl vehicle (DMSO:acetone: 1:40 v/v) before and after each UVR exposures. […] Carcinomas were recorded grossly as downward-invading lesions, which were confirmed histologically. […] At the end of the experiment, mice were sacrificed. […] A part of the uninvolved dorsal skin was fixed for in 10% neutral-buffered formalin for histological examination. […] (D): A part of the uninvolved skin was also used to prepare total epidermal lysate to determine expression level of PKCε, Hsp90β, and Hsp70.
(§2) The PKCε-overexpressing transgenic (TG) and wildtype FVB/N mice (6-7 week old) were exposed to UVR. Mice were exposed to UVR (1.8 kJ/m2) three times weekly (Monday, Wednesday and Friday). The mice in the vehicle group received topical treatment of 200 μl vehicle (DMSO:acetone: 1:40 v/v) before and after UVR each exposure. […] Carcinomas were recorded grossly as downward-invading lesions, which were confirmed histologically. […] There were 11 mice in each group.
(§3) SKH1 hairless mice were purchased from Charles River Laboratories (Wilmington, Mass.). PKCε transgenic mice were generated as described previously (Reddig et al., 2000). The UVR source was Kodacel-filtered FS-40 sunlamps (approximately 60% UV-B and 40% UV-A). Mice were exposed to UVR from a bank of six Kodacel-filtered sunlamps. UVR dose was routinely measured using UVX-radiometer.
(§4) 4. […] Initial tumor induction experiment was performed with SKH-1 hairless mice.

UVR-induced SCC [3] = test: UVR-induced development of SCC in PKCε overexpressing transgenic FVB/N mice and wild-type littermates; type: in vivo
Protocol: as §2, §3

[4] = cited from earlier work; for bioavailability: literature
[5] = test system: PKCε, Stat3, pStat3Tyr705, pStat3Ser727, Akt, pAktser473; test: Epidermal protein expression levels after UVR (Western blot); type: in vivo, PKCε-overexpressing transgenic mice
Protocol: PKCε-overexpressing transgenic mice (line 224) were exposed once to UVR (4 kJ/m2). […] Mice were sacrificed 24 hours post-UVR exposure. There were two mice per treatment point. Dorsal skin comprised excised, epidermal cell lysates prepared as described before (Aziz et al., 2007). […] PKCε-overexpressing transgenic mice (line 224) were exposed once to UVR (2 kJ/m2). […] Mice were sacrificed at 24 hours post-UVR exposure. There were three mice per treatment point. Dorsal skin comprised excised, epidermal cell lysates prepared as described before (Aziz et al., 2007). Pooled epidermal cell lysate was analyzed for PKCε expression level by western blot analysis (B). (C) Shown is the quantitation of the western blot (B).
Mouse skin was excised and scraped to remove subcutaneous fat. The epidermis was scraped off on an ice-cold glass plate, homogenized in lysis buffer [50 mmol/L HEPES, 150 mmol/L NaCl, 10% glycerol, 1% Triton X-100, 1.5 mmol/L MgCl2, 10 μg/m aprotinin, 10 μg/m leupeptin, 1 mmol/L phenylmethylsulfonyl fluoride (PMSF), 200 μmol/L Na3VO4, 200 μmol/L NaF, and 1 mmol/L EGTA (final pH 7.5)]. The homogenate was centrifuged at 14,000 g for 30 min at 4° C. […] The Western blots were quantitated by densitometric analysis using Totallab® Nonlinear Dynamic Image analysis software (Nonlinear USA, Inc., Durham, N.C.). […]

Hsp90β-PKCε interaction = Hsp90β-PKCε interaction (Mus musculus, UniProt P11499); conditions: 500 nmol topical before and after one UVR exposure, 24 hours post-UVR
Protocol: PKCε-overexpressing transgenic mice (line 224) were exposed once to UVR (4 kJ/m2). […] Mice were sacrificed 24 hours post-UVR exposure. There were two mice per treatment point. Dorsal skin comprised excised, epidermal cell lysates prepared as described before (Aziz et al., 2007). Pooled epidermal cell lysate was analyzed for PKCε-Hsp90β interaction by immunoprecipitation/Western blot analyses (A).
Epidermal lysates were prepared as for Western blot analysis. 100 μg of epidermal lysate was incubated with 10 μg of the indicated antibody. The total volume of the lysate/antibody mixture was adjusted to 1,000 μL with lysis buffer to allow for appropriate mixing and rotated at 4° C. overnight. Lysate/antibody mixture was then mixed with 50 μL of protein agarose A/G (sc-2003 Santa Cruz Biotechnology, Santa Cruz, Calif.) for 6 h. Lysate/antibody/protein A/G agarose mixture was then centrifuged at 8,000 g for 10 min to sediment the protein A/G agarose. Pellet was washed with 0.1% tween in PBS and then sedimented at 8,000 g for 10 min three times to wash any non-specific binding from the pellet. After three washes the immunoprecipite was then boiled for 5 min in 20 μL Protein Loading Buffer Blue (Cat # EC-886, National Diagnostics, Atlanta, Ga.). Immunoprecipitates were then treated as in Western Blot analysis above.

[6] = cited from earlier work
[7] = HPLC analysis of 17AAG in serum and mouse epidermis after topical application; type: in vivo, mice (SKH-1 hairless, FVB)
Protocol: SKH hairless mice (6-7 weeks old) were exposed to UVR (1.8 kJ/m^2) three times weekly (Monday, Wednesday, and Friday). The mice in the vehicle group (n=3) received topical treatment of 200 μl vehicle (DMSO:acetone: 1:40 v/v) before and after UVR exposures. […] All mice were treated for 25 weeks and sacrificed at 1, 3, 6 and 24 hours following the last UVR exposure. (A) Blood samples were collected to analyze serum 17AAG by HPLC. […] Mice were sacrificed at 6 and 24 hours post-17AAG treatment. (B) Blood samples were collected for serum 17AAG analysis. (C) 17AAG level was also analyzed in the epidermal protein lysate. To prepare epidermal lysate, epidermis was scraped and homogenized in the lysis buffer. […] Each value is an average of duplicate samples. ND: Not detectable. Inset: Chemical structure of 17AAG.
Dorsal areas of the mice (6-7 week old) were shaved and depilated one day before the treatment. […] Blood samples were collected to detect 17AAG in serum. To prepare epidermal lysate, epidermis was removed and homogenized with the lysis buffer. 17-AAG levels in the serum and mouse epidermis were analyzed by HPLC (Shin, et al., 2012).
1. Topically applied 17AAG is distributed both in epidermis and serum.

Hsp90 = conditions: cited from earlier work
PKCε, Hsp90β, Hsp70 = test: Expression levels in uninvolved skin at end of SCC experiment; type: in vivo, SKH-1 hairless mice; conditions: SKH hairless mice
Protocol: as §1, §4

UVR-induced hyperplasia [8] = test: Effect of topically applied Hsp90 inhibitors on UVR-induced hyperplasia (Table 3); as to Effect on Hyperplasia, Mice 1 or Slide 1, 24 Hr. post UVR: key: +++ (positive effect); −−− (negative effect); −− (less negative); as to Effect on Hyperplasia, Mice 2 or Slide 2, 24 Hr. post UVR: key: +++ (positive effect); −−− (negative effect); −− (less negative); as to Effect on Hyperplasia, Mice 2 or Slide 2, 48 Hr. post UVR: key: +++ (positive effect); −−− (negative effect); −− (less negative); type: in vivo, SKH1 mice; design: Effect on Hyperplasia, Mice 2 or Slide 2, 24 Hr. post UVR / Effect on Hyperplasia, Mice 2 or Slide 2, 48 Hr. post UVR / Effect on Hyperplasia, Mice 1 or Slide 1, 24 Hr. post UVR / Effect on Hyperplasia, Mice 1 or Slide 1, 48 Hr. post UVR: key: +++ (positive effect); −−− (negative effect); −− (less negative); conditions: for Effect on Hyperplasia, Mice 1 or Slide 1, 24 Hr. post UVR / Effect on Hyperplasia, Mice 1 or Slide 1, 48 Hr. post UVR / Effect on Hyperplasia, Mice 2 or Slide 2, 24 Hr. post UVR / Effect on Hyperplasia, Mice 2 or Slide 2, 48 Hr. post UVR: SKH1 mice, topical; for Effect on Hyperplasia, Mice 1 or Slide 1, 24 Hr. post UVR: mouse 1, 24 Hr. post UVR; for Effect on Hyperplasia, Mice 1 or Slide 1, 48 Hr. post UVR: mouse 1, 48 Hr. post UVR; for Effect on Hyperplasia, Mice 2 or Slide 2, 24 Hr. post UVR: mouse 2, 24 Hr. post UVR; for Effect on Hyperplasia, Mice 2 or Slide 2, 48 Hr. post UVR: mouse 2, 48 Hr. post UVR
[9] = test system: MMP-2, MMP-9, Collagen IV, Hsp70; test: Skin expression of MMPs, collagen IV, Hsp70 and PCNA after UVR (Western blot); type: in vivo; conditions: SKH1 mice
Protocol: Groups of SKH1 mice were exposed to UVR (2 kJ/m2) three times (Monday, Wednesday, Friday, and Monday) weekly for 6 and 12 weeks. […] Mice were sacrificed at 24 hours after the last UVR treatment. […] To determine morphological and biochemical alteration in skin, the two layers of skin (epidermis and dermis) were isolated separately for analysis of the indicated protein by the western blot analysis.
Mouse skin was excised and scraped to remove subcutaneous fat. The epidermis was scraped off on an ice-cold glass plate, homogenized in lysis buffer [50 mmol/L HEPES, 150 mmol/L NaCl, 10% glycerol, 1% Triton X-100, 1.5 mmol/L MgCl2, 10 μg/m aprotinin, 10 μg/m leupeptin, 1 mmol/L phenylmethylsulfonyl fluoride (PMSF), 200 μmol/L Na3VO4, 200 μmol/L NaF, and 1 mmol/L EGTA (final pH 7.5)]. The homogenate was centrifuged at 14,000 g for 30 min at 4° C. Epidermal cell lysate proteins were fractionated on 10% Criterion™ pre-cast SDS-polyacrylamide gels (Bio-Rad Laboratories, Hercules, Calif.). The protein was transferred to 0.45 μm Hybond-P polyvinylidene difluoride (PVDF) transfer membrane (Amersham Life Sciences, Piscataway, N.J.). The membrane was then incubated with the indicated antibody followed by a horseradish peroxidase secondary antibody (Thermo Scientific), and the detection signal was developed with Amersham's enhanced chemiluminescence reagent and using FOTO/Analyst Luminary Work Station (Fotodyne Inc.). The Western blots were quantitated by densitometric analysis using Totallab® Nonlinear Dynamic Image analysis software (Nonlinear USA, Inc., Durham, N.C.).

[10] = in vivo; cited from earlier work
human Hsp90 = conditions: cited from earlier work
[11] = clinical trials; cited from earlier work
[12] = SKH-1 hairless mice, 17AAG applied post each UVR exposure only
[13] = FVB mice, single topical application, 6 hr after treatment
[14] = both mice, 24 hr and 48 hr post-UVR
[15] = 500 nmol topical after each UVR, 6 and 12 weeks

Chain of Hsp90β-PKCε interaction (P11499 2-724 limits assumed): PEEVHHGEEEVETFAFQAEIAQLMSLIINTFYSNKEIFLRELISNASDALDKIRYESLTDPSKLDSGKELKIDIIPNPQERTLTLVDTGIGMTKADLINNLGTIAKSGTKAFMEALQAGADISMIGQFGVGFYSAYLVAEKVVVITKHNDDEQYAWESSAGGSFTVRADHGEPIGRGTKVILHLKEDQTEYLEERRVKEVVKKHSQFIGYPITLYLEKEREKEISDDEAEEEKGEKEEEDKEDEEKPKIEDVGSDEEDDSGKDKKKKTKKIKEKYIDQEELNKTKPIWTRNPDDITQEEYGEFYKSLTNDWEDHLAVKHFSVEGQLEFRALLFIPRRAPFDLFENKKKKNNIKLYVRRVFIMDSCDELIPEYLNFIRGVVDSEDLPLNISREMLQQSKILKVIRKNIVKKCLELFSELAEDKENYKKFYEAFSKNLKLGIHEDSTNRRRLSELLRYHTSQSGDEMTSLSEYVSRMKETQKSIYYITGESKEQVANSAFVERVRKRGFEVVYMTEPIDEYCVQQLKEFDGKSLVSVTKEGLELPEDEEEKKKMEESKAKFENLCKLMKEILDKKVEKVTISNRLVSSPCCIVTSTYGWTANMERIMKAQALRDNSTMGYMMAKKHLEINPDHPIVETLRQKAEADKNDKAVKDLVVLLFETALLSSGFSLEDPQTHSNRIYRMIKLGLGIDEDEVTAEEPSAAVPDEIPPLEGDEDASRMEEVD

SMILES: C=CCNC1=C2C[C@@H](C)C[C@H](OC)[C@H](O)[C@@H](C)/C=C(\C)[C@H](OC(N)=O)[C@@H](OC)/C=C\C=C(/C)C(=O)NC(=CC1=O)C2=O [17AAG, 17-allylamino-demethoxygeldanamycin]
- UVR-induced hyperplasia (epidermal thickness) (UVR-induced hyperplasia [1]): inhibited
- SCC incidence (UVR-induced SCC [2]; SKH hairless mice, 500 nmol topical before and after each UVR exposure): significantly (p=0.038) inhibited
- change in SCC latency (UVR-induced SCC [2]; SKH hairless mice, 500 nmol topical before and after each UVR exposure (1.8 kJ/m2, three times weekly)): 17 weeks
- increase in SCC latency (UVR-induced SCC [2]; [12]): 20 weeks
- inhibition of SCC incidence (UVR-induced SCC [2]; [12]): > 50%
- UVR-induced hyperplasia in uninvolved dorsal skin (UVR-induced SCC [2]; end of SCC experiment, SKH hairless mice (FIG. 5C)): inhibition
- UVR-induced development of SCC (UVR-induced SCC [3]; PKCε overexpressing transgenic FVB/N mice, topical 500 nmol before and after each UVR, p=0.036): significantly inhibited
- UVR-induced development of SCC (UVR-induced SCC [3]; wild-type and PKCε overexpressing transgenic FVB/N mice, topical, p<0.01): significantly (p<0.01) inhibited
- UVR-induced development of SCC (UVR-induced SCC [3]; wild-type littermates (FVB/N), topical 500 nmol before and after each UVR, p=0.018): significantly inhibited
- Half-life ([4]; administered intravenous or orally, literature reports): 3 to 4 h
- bioavailability ([4]; given intraperitoneally): excellent
- bioavailability ([4]; given orally): modest
- PKCε expression level ([5]; 500 nmol topical before and after one UVR exposure, 24 hours post-UVR (FIG. 3A input)): did not appreciably affect
- Stat3, pStat3Ser727, pStat3Tyr705 and pAktser473 expression levels ([5]; topical before and after one UVR exposure, 24 hours post-UVR): inhibited
- UVR-induced PKCε-Hsp90β interaction (Hsp90β-PKCε interaction): suppressed
- solubility in water or organic solvent, such as DMSO and ethanol, compared with Geldanamycin [6]: higher
- half-life of topically applied 17AAG ([7]; 500 nmol in DMSO:acetone 1:40 on skin, inferred from decline at 24 hours): short
- epidermal 17AAG level [7, 13]: detectable
- serum 17AAG level [7, 13]: detectable
- serum and epidermal 17AAG levels ([7]; SKH-1 and FVB mice, 24 hours post-17AAG treatment): lowest
- time of maximum serum 17AAG level post topical application ([7]; SKH-1 hairless mice, topical 500 nmol with three weekly UVR exposures for 25 weeks): 1 h
- higher affinity for Hsp90 derived from tumor cells compared to Hsp90 from normal cells (Hsp90): 100 fold
- Hsp70 level (PKCε, Hsp90β, Hsp70): increase
- Hsp90β and PKCε expression levels (PKCε, Hsp90β, Hsp70): inhibition
- Effect on Hyperplasia, Mice 1 or Slide 1, 24 Hr. post UVR (UVR-induced hyperplasia [8]): +++
- Effect on Hyperplasia, Mice 1 or Slide 1, 48 Hr. post UVR (UVR-induced hyperplasia [8]): +++
- Effect on Hyperplasia, Mice 2 or Slide 2, 24 Hr. post UVR (UVR-induced hyperplasia [8]): +++
- Effect on Hyperplasia, Mice 2 or Slide 2, 48 Hr. post UVR (UVR-induced hyperplasia [8]): +++
- effect on UVR-induced hyperplasia (Table 3) (UVR-induced hyperplasia [8]; [14]): positive effect
- expression level of MMP-2, MMP-9, collagen IV [9, 15]: decrease
- expression of Hsp70 [9, 15]: increase
- UVR-induced proliferative marker PCNA ([9]; topical): inhibited

SMILES: CO[C@H]1/C=C\C=C(/C)C(=O)NC2=CC(=O)C(NCCN(C)C)=C(C[C@@H](C)C[C@H](OC)[C@H](O)[C@@H](C)/C=C(\C)[C@@H]1OC(N)=O)C2=O.Cl [17DMAG]
- oral bioavailability [10]: excellent
- potency against human Hsp90 relative to 17-AAG (human Hsp90): ~2 times

SMILES: CCNC(=O)c1noc(-c2cc(C(C)C)c(O)cc2O)c1-c1ccc(CN2CCOCC2)cc1 [NVPAU922]
- effect on UVR-induced hyperplasia (Table 3) (UVR-induced hyperplasia [8]; [14]): slightly negative effect

SMILES: CC1(C)CC(=O)c2c(C(F)(F)F)nn(-c3ccc(C(N)=O)c(N[C@H]4CC[C@H](O)CC4)c3)c2C1 [SNX-2112]
- Effect on Hyperplasia, Mice 2 or Slide 2, 24 Hr. post UVR (UVR-induced hyperplasia [8]): +++
- Effect on Hyperplasia, Mice 2 or Slide 2, 48 Hr. post UVR (UVR-induced hyperplasia [8]): +++
- effect on UVR-induced hyperplasia (Table 3) (UVR-induced hyperplasia [8]; mouse 1, 24 hr and 48 hr post-UVR): no effect
- effect on UVR-induced hyperplasia (Table 3) (UVR-induced hyperplasia [8]; mouse 2, 24 hr and 48 hr post-UVR): positive effect

SMILES: CCNC(=O)c1cc2c(-c3cc(OCCN4CCCC4)c(Cl)cc3Cl)nc(N)nc2[nH]1 [NPVBEP800]
- Effect on Hyperplasia, Mice 1 or Slide 1, 24 Hr. post UVR (UVR-induced hyperplasia [8]): +++
- Effect on Hyperplasia, Mice 1 or Slide 1, 48 Hr. post UVR (UVR-induced hyperplasia [8]): +++
- Effect on Hyperplasia, Mice 2 or Slide 2, 24 Hr. post UVR (UVR-induced hyperplasia [8]): +++
- Effect on Hyperplasia, Mice 2 or Slide 2, 48 Hr. post UVR (UVR-induced hyperplasia [8]): +++
- effect on UVR-induced hyperplasia (Table 3) (UVR-induced hyperplasia [8]; [14]): positive effect

SMILES: COC1=C2C[C@@H](C)C[C@H](OC)[C@H](O)[C@@H](C)/C=C(\C)[C@H](OC(N)=O)[C@@H](OC)/C=C\C=C(/C)C(=O)NC(=CC1=O)C2=O [Geldanamycin]
- liver toxicity [11]: liver toxicity

Source: patent US20150031697A1, “METHOD FOR PREVENTING ULTRAVIOLET RADIATION-INDUCED CUTANEOUS DAMAGE AND DEVELOPMENT OF SQUAMOUS CELL CARCINOMAS” (WISCONSIN ALUMNI RESEARCH FOUNDATION, priority 2013, published 2015)
